Source: patent publication US12378204B2, “Triazole compounds and preparation method therefor and use thereof” (WUHAN LL SCIENCE AND TECHNOLOGY DEVELOPMENT CO., LTD., priority 2019, dated 2025)

Legend:
[1] = In vitro metabolic stability, human liver microsomes; format: in vitro ADME; conditions: 1 mg/mL liver microsome protein, 37° C.
Protocol: (§1) The in vitro metabolic stability of the compounds disclosed herein was determined through incubation of liver microsomes of various species. A proper amount of test compound was added into a liver microsome reaction system (1 mg/mL liver microsome protein, 25 U/mL glucose-6 phosphate dehydrogenase, 1 mM NADP, 6 mM D-glucose 6-phosphate and 5 mM MgCl2), and then the mixture was incubated in a water bath kettle at 37° C. to start reaction. At each time point, 100 μL of the reaction system was added into a centrifuge tube containing 400 μL of internal standard working solution (containing a 200 ng/mL solution of dexamethasone, diclofenac, tolbutamide and labetalol in acetonitrile) precooled at 0° C. so as to stop the reaction, and the mixture was then centrifuged at 10,000 g for 10 min at 4° C. The supernatant was collected for LC-MS assay so as to obtain the values of in vitro metabolic half-life of the test compounds in liver microsomes of various species.

[2] = biological target: T1, hLPAR1 (human lysophosphatidic acid receptor 1) (Homo sapiens, UniProt Q92633); assay: FLIPR intracellular calcium assay, hLPAR1 expressed in CHO-K1 cells; format: cell-based; conditions: antagonism of 1 μM LPA-induced calcium increase, CHO-K1 cells expressing hLPAR1; read-out: LPAR1 IC50
T1 construct: expressed in transfected cells
Protocol: The antagonist property of the compounds disclosed herein was determined using the FLIPR (fluorescence imaging plate reader) method, wherein the compounds are inhibitors for the intracellular calcium increase induced by activation of hLPAR1 (human lysophosphatidic acid receptor 1, accession No. NM_001401.4) expressed in CHO-K1 cells (Chinese hamster ovary cells K1, ATCC).
CHO-K1 cells stably expressing hLPAR1 were cultured in F-12 medium containing 10% FBS (fetal bovine serum, Gibco, 10099-141), 1% penicillin-streptomycin (Gibco, 15140-122) and 0.4 mg/mL hygromycin B (Gibco, 10687010) in a cell incubator (37° C., […]). During 18-24 h prior to the FLIPR experiment, cells at 250,000 cells/mL were seeded into a 96-well plate (25,000 cells/well) and incubated overnight in the cell incubator. On the day of the experiment, the medium was discarded and the cells were washed in a FLIPR buffer (0.3 mL of probenecid (Thermo, P36400), 0.6 mL of 1 M HEPES (Invitrogen, 15630080) and 29.1 mL of HBSS (Invitrogen, 14065056) per 30 mL of buffer). Each well was added with 75 μL of 1 mM Fluo-4 AM fluorescent dye (Thermo, F14202) and then the cells were subjected to dye-loading incubation at 37° C. for 1.0 h. The 96-well plate was then washed once with buffer, added with a buffer containing a test compound or vehicle at 50 μL per well and then incubated for 30 min at room temperature. The cell plate was then placed in the FLIPR for baseline fluorescence measurements (excitation at 485 nm and emission at 525-535 nm). An agonist (oleoyl-L-α-lysophosphatidic acid sodium salt (Sigma, L7260) at a final concentration of 1 μM) or a vehicle (ultrapure water) was then added at 50 μL/well, fluorescence values were measured for 2 min at 1-second intervals, and finally the output fluorescence counts were analyzed.

[3] = In vitro metabolic stability, rat liver microsomes; format: in vitro ADME; conditions: 1 mg/mL liver microsome protein, 37° C.
Protocol: as §1

[4] = In vitro cytotoxicity assay in HepG2 cells, CCK-8 method; format: cell-based; conditions: human, 48 h incubation
Protocol: In vitro cytotoxicity assay for the compounds disclosed herein was performed in HepG2 cells using the CCK-8 method. HepG2 cells (Beina Bio) in the logarithmic growth phase were collected, the concentration of cell suspension was adjusted, and then the cells were plated on a 96-well cell culture plate at 50,000 cells/well. • The cells were then incubated overnight in a cell incubator (5% CO2, 37° C.), and after 80-90% cell confluence was achieved, test compounds or vehicle (DMSO) at various concentration gradients were added after medium change. The resulting mixture was incubated in the cell incubator (5% CO2, 37° C.) for 48 h. After the treatment, the medium in the plate was discarded. The plate was washed twice with PBS, added with CCK-8 working solution (Beyotime) at 100 μL per well, and then incubated at 37° C. for 1.5 h in the dark. Absorbance at OD450nm was measured for each well on a microplate reader, and CC50 value of each compound was analyzed and calculated.

[5] = In vitro metabolic stability, mouse liver microsomes; format: in vitro ADME; conditions: 1 mg/mL liver microsome protein, 37° C.
Protocol: as §1

[6] = tested on: A2058 (human melanoma cells); assay: A2058 cell scratch assay (cell migration inhibition); format: cell-based; conditions: A2058 scratch area 0 h vs 24 h, 10 μM LPA, read-out: Cell migration inhibition rate
Protocol: The activity of the compounds disclosed herein at the cell level in vitro is evaluated by A2058 (human melanoma cells, Beina Bio, BNCC341099) cell scratch assay. The inhibitory activity of the compounds against LPAR1 can be reflected by inhibition of cell scratch healing.
A2058 cells in a T75 cm^2 cell culture flask were digested and gently pipetted into single cells, adjusted to a cell density of 4×10^5 cells/mL, and then seeded into a 24-well plate. After the cell confluence reached 80%, the cell culture plate was taken out and the original medium was discarded. Serum-free medium was then added, and the cells were starved overnight in an incubator (37° C., 5% CO2). The cell culture plate was then taken out, and cell scratches were made along the diameter of the wells using a 200 μL pipette tip. The cell culture plate was then added with 500 μL of serum-free medium and then shaken gently to wash away the residual cells on the scratched surface, and this was repeated twice. The medium was discarded and 500 μL of 1% FBS medium containing the compound was then added, and the mixture was incubated at 37° C. for 30 min. […] Olympus CKX53 was used to observe the scratches, and MShot image analysis system was used to take pictures and measure the scratch area at 0 h. Then the cell culture plate was incubated in the incubator (37° C., 5% CO2). 24 h later, the scratches were observed again with Olympus CKX53, and MShot image analysis system was used to take pictures and measure the scratch area at 24 h. Cell migration inhibition rate was calculated according to the following formula: […]

T1 sequence (Q92633 whole entry): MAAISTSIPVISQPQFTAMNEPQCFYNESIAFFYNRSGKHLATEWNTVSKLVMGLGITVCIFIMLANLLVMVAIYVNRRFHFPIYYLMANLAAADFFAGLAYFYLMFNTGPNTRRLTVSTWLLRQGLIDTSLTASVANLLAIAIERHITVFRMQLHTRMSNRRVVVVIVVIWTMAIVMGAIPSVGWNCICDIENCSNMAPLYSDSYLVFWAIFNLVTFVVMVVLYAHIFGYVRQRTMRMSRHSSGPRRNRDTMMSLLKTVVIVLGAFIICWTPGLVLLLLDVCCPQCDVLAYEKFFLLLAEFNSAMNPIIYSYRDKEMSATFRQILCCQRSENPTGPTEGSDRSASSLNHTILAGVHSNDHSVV

Row | half-life [1] [min] | IC50 [2] [nM] | half-life [3] [min] | half-life [5] [min] | SMILES | CC50 at 48 h [4] [nM] | inhibition [6] [%]
1 | > 30 | 50 to 300 | > 30 | > 30 | CN(Cc1ccccc1)C(=O)/C=C/c1c(-c2ccc(O[C@H]3CCC[C@H](C(=O)O)C3)cc2)nnn1C (racemic) [Compound 2] | > 200000 | 0 to 30
2 | > 30 | 50 to 300 | > 30 | > 30 | CN(Cc1ccccc1)C(=O)CCc1c(-c2ccc(O[C@H]3CCC[C@H](C(=O)O)C3)cc2)nnn1C (racemic) [Compound 3] | > 200000 | 30 to 50
3 | > 30 | ≤ 50 | > 30 | > 30 | CN(C(=O)NCc1c(-c2ccc(O[C@H]3CCC[C@H](C(=O)O)C3)c(C(F)(F)F)n2)nnn1C)C1CCCC1 (racemic) [Compound 26, (+/−)-(1S,3S)-3-((6-(5-((3-cyclopentyl-3-methylureido)methyl)-1-methyl-1H-1,2,3-triazol-4-yl)-2-(trifluoromethyl)pyridin-3-yl)oxo)cyclohexane-1-carboxylic acid] | > 200000 | 30 to 50
4 | 232 | ≤ 50 | 57 | 192 | CN(C(=O)CCc1c(-c2ccc(O[C@H]3CCC[C@H](C(=O)O)C3)c(C(F)(F)F)n2)nnn1C)C1CCCC1 (racemic) [Compound 27-A, (+/−)-(1S,3S)-3-((6-(5-(3-(cyclopentyl(methyl)amino)-3-carbonylpropyl)-1-methyl-1H-1,2,3-triazol-4-yl)-2-(trifluoromethyl)pyridin-3-yl)oxo)cyclohexane-1-carboxylic acid] | > 200000 | 50 to 70
5 | – | 50 to 300 | – | – | CN(C(=O)NCc1c(-c2ccc(O[C@H]3CCC[C@H](C(=O)O)C3)cc2)nnn1C)C1CCCC1 (racemic) [Compound 30, (+/−)-(1S,3S)-3-(4-(5-((3-cyclopentyl-3-methylureido)methyl)-1-methyl-1H-1,2,3-triazol-4-yl)phenoxy)cyclohexane-1-carboxylic acid] | > 200000 | 30 to 50
6 | > 30 | 50 to 300 | > 30 | > 30 | CN(C(=O)OC1CCCC1)c1c(-c2ccc(O[C@H]3CCC[C@H](C(=O)O)C3)cc2)nnn1C (racemic) [Compound 31, (+/−)-(1S,3S)-3-(4-(5-(((cyclopentyloxy)carbonyl)(methyl)amino)-1-methyl-1H-1,2,3-triazol-4-yl)phenoxy)cyclohexane-1-carboxylic acid] | > 200000 | 30 to 50
7 | – | 50 to 300 | – | – | Cn1nnc(-c2ccc(O[C@H]3CCC[C@H](C(=O)O)C3)cc2)c1CNC(=O)Cc1ccccc1 [Compound 4, (1S,3S)-3-((4-(5-(2-N-phenylacetamido))-1-methyl-1H-1,2,3-triazol-4-yl)-phenoxy)cyclohexane-1-carboxylic acid] | > 200000 | 30 to 50
8 | > 30 | 300 to 10000 | < 30 | > 30 | CN(Cc1ccccc1)C(=O)OCc1c(-c2ccc(Oc3cc(Cl)ccc3C(=O)O)cc2)nnn1C [Compound 7, 4-chloro-2-(4-(5-(((benzyl(methyl)carbamoyl)oxo)methyl)-1-methyl-1H-1,2,3-triazol-4-yl)phenoxy)benzoic acid] | > 200000 | 0 to 30
9 | – | 50 to 300 | – | – | Cn1nnc(-c2ccc(O[C@H]3CCC[C@H](C(=O)O)C3)cc2)c1-c1cn(Cc2ccccc2)c(=O)o1 [Compound 8] | > 200000 | 0 to 30
10 | – | 50 to 300 | – | – | Cn1nnc(-c2ccc(O[C@H]3CCC[C@H](C(=O)O)C3)cc2)c1C1CN(Cc2ccccc2)C(=O)O1 (stereo partly drawn) [Compound 9, (1S,3S)-3-(4-(5-(3-benzyl-2-carbonyloxazolidin-5-yl)-1-methyl-1H-1,2,3-triazol-4-yl)phenoxy)cyclohexane-1-carboxylic acid] | > 200000 | 30 to 50
11 | – | 50 to 300 | – | – | CN(Cc1ccccc1)C(=O)OCc1c(-c2ccc(O/C=C/C(=O)O)cc2)nnn1C [Compound 10, (E)-3-(4-(5-(((benzyl(methyl)carbamoyl)oxo)methyl)-1-methyl-1H-1,2,3-triazol-4-yl)phenoxy)acrylic acid] | > 200000 | 30 to 50
12 | – | 50 to 300 | – | – | CN(Cc1ccccc1)C(=O)OCc1c(-c2ccc(OCCC(=O)O)cc2)nnn1C [Compound 11, 3-(4-(5-(((benzyl(methyl)carbamoyl)oxo)methyl)-1-methyl-1H-1,2,3-triazol-4-yl)phenoxy)propionic acid] | > 200000 | 0 to 30
13 | – | 50 to 300 | – | – | CN(Cc1ccccc1)C(=O)OCc1c(-c2ccc(N[C@H]3CCC[C@H](C(=O)O)C3)cc2)nnn1C [Compound 13, 3-((4-(5-(((benzyl(methyl)carbamoyl)oxo)methyl)-1-methyl-1H-1,2,3-triazol-4-yl)phenyl)amino)cyc lohexanecarboxylic acid] | > 200000 | 0 to 30
14 | – | 50 to 300 | – | – | CN(Cc1c(-c2ccc(O[C@H]3CCC[C@H](C(=O)O)C3)cc2)nnn1C)C(=O)OCc1ccccc1 [Compound 14, (1S,3S)-3-(4-(5-((((benzyloxy)carbonyl)(methyl)amino)methyl)-1-methyl-1H-1,2,3-triazol-4-yl)phenoxy)cyclohexane-1-carboxylic acid] | > 200000 | 30 to 50
15 | > 30 | 50 to 300 | > 30 | > 30 | CN(C(=O)NCc1c(-c2ccc(O[C@H]3CCC[C@H](C(=O)O)C3)c(F)c2)nnn1C)C1CCCC1 [Compound 25] | > 200000 | 30 to 50
16 | – | 300 to 10000 | – | – | Cn1nnc(-c2ccc(O[C@H]3CCC[C@H](C(=O)O)C3)c(C(F)(F)F)n2)c1C1CN(C2CCCC2)C(=O)O1 (stereo partly drawn) [Compound 29] | > 200000 | 0 to 30
